# Key:
# recombinant human 5-LOX = molecular target: T1, recombinant human 5-LOX (Homo sapiens, UniProt P09917); experiment: Fluorescence Intensity 5-LOX Enzyme Assay; assay type: biochemical; conditions: crude lysate of recombinant human 5-LOX; highest inhibitor concentration tested typically 25 μM
# T1 sequence (P09917 1-674): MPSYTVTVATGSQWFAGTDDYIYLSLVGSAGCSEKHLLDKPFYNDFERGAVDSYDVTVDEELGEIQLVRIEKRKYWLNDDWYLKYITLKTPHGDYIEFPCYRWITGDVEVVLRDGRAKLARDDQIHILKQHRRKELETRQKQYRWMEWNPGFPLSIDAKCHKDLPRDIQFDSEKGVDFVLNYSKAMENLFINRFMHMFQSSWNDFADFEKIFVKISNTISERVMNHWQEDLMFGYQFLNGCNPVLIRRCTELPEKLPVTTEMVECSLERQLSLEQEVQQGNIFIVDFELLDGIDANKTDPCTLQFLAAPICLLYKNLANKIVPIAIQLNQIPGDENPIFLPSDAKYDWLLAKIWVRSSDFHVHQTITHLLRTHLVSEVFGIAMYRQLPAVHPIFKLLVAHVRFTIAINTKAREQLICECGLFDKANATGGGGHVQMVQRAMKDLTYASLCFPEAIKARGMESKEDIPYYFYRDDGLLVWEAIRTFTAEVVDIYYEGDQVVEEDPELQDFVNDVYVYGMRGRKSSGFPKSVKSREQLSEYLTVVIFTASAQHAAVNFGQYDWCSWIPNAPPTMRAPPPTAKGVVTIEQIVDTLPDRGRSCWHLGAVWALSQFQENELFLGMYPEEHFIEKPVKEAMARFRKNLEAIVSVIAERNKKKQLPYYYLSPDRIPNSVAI
# Description: Bio Data Assays for Allergic and Non Allergic Airways Diseases Fluorescence Intensity 5-LOX Enzyme Assay
# The enzyme assay is based on the oxidation of the non-fluorescent compound 2′7′-dichlorodihydrofluorescein diacetate (H2DCFDA) to the fluorescent 2′,7′-dichlorofluorescein by 5-LOX in an arachidonic acid-dependent reaction. Ester cleavage of the acetate groups of the substrate H2DCFDA must occur prior to oxidation. This is achieved through use of a crude cell lysate preparation of recombinant human 5-LOX. The enzyme assay ([…]) contained 50 mM Tris (pH 7.5), 2 mM CaCl2, 2 mM EDTA, 3 μM arachidonic acid (Nu-Chek Prep; #S-1133), 10 μM ATP, 10 μM H2DCFDA (Invitrogen; #D399), inhibitor (varying concentration) and recombinant human 5-LOX enzyme (1.25 μL crude lysate per well).
# Inhibitors (dissolved in DMSO) were plated into a 384-well assay plate (Corning #3654) at 1 μL followed by a 20 μL addition of a solution containing 5-LO enzyme and H2DCFDA. Enzyme and H2DCFDA were pre-incubated for 5 min to allow time for acetate group cleavage of the dye prior to addition to the assay plate. After a 10 min pre-incubation of inhibitor and enzyme/dye mix, the assay was initiated by the addition of a substrate solution containing arachidonic acid and ATP. The enzymatic reaction was run for 20 min at room temperature and terminated by the addition of 40 μL of acetonitrile. Assay plates were read in a plate reader using standard wavelengths for fluorescein. IC50s of inhibitors were calculated using a 4-parameter fit using 7 inhibitor concentrations in duplicate with 3-fold serial dilutions. Controls on each plate included no inhibitor (zero percent effect) and 25 μM C J-13610 (one hundred percent effect). The highest inhibitor concentration tested was typically 25 μM. The final DMSO concentration in the assay was 2.5%.
# [1] = tested on: human whole blood (leukotriene and prostaglandin levels); experiment: Eicosanoid production from human whole blood; assay type: cell-based; conditions: human whole blood stimulated with calcium ionophore A23187 and arachidonic acid; ELISA
# Method: Human whole blood is collected in 10 ml heparin tubes (Vacutainer, Becton Dickenson). Collected blood is pooled and 80 μL is dispensed into each well of 384 well polypropylene plates. A PlateMate is used to add 2 μL of compound solution in DMSO to the 80 μL of blood in the polypropylene plates. The plate, with blood and compound added, is incubated at room temperature for 10 minutes. 2 μL of a calcimycin (800 ng/ml) (A23187 C-7522, Sigma) and arachidonic acid (30 μM) (NU-Chek PREP, INC. S-1133) solution in 60% ethanol is then added to the blood using a Micromultidrop. The plates are then incubated at 37° C. in a shallow water bath for 15 minutes. Plates are then spun at 800 g for 10 minutes at 4° C. Supernatant is removed and assayed by Elisa (Caymen Chemical).
# Eicosanoid Production from Human Whole Blood:
# Human whole blood was collected from healthy or asthmatic human donors in 10 ml heparinized tubes (Vacutainer tubes; Becton Dickenson, Franklin Lakes, N.J.). Collected blood was pooled and 80 μL was dispensed into each well of 384 well polypropylene plates using a Multi-prop™ 384-well dispenser (Titertek, Huntsville, Ala.). Varying concentrations of compounds were dissolved in DMSO then 2 μL/well was added to the blood using a PlateMate Plus™ automated pipetting station (Matrix Technologies, Hudson, N.H.). The compounds were preincubated with the blood at room temperature for 10 minutes followed by stimulation with 40 μM calcium ionophore (A23187, Sigma Chemical Co, St. Louis, Mo., Cat. # C-7522) and 30 μM arachidonic acid (S-1133, NU-Chek PREP, Inc., Elysian, MN, Cat. # S-1133) dissolved in 60% ethanol. After 15 min incubation at 37° C. in a shallow water bath, the blood was centrifuged at 8009 for 10 minutes at 4° C., the supernatants collected, and leukotriene and prostaglandin levels measured by ELISA according to the manufacturer's directions (Cayman Chemical Company, Ann Arbor, Mich.). The assay was performed at a final concentration of 2.5% DMSO.
IC50 (recombinant human 5-LOX),IC50 [1],SMILES
470 nM,8270 nM,"CNC(=O)C1(c2cccc(Sc3ccc(C(=O)c4ccnn4C)c(OC)c3)c2)CCOCC1 [Example 64, 4-[3-({3-methoxy-4-[(1-methyl-1H-pyrazol-5-yl)carbonyl]phenyl}thio)phenyl]-N-methyltetrahydro-2H-pyran-4-carboxamide]"
153 nM,1380 nM,"Cn1ncc(Br)c1-c1ccc(Sc2cccc(C3(C(N)=O)CCOCC3)c2)cc1F [Example 78, 4-(3-{[4-(4-bromo-1-methyl-1H-pyrazol-5-yl)-3-fluorophenyl]thio}phenyl)tetrahydro-2H-pyran-4-carboxamide]"
32.9 nM,83.6 nM,C[C@H]1C[C@@](C#N)(c2cccc(Sc3ccc(-c4ccnn4C)cc3F)c2F)CCO1 [Example 25]
126 nM,256 nM,"Cn1nccc1-c1ccc(Sc2cccc(C3(C(N)=O)CCOCC3)c2F)cc1 [17(7), 4-(2-fluoro-3-{[4-(1-methyl-1H-pyrazol-5-yl)phenyl]thio}-phenyl)tetrahydro-2H-pyran-4-carboxamide]"
1200 nM,530 nM,"C[C@@H]1C[C@](C#N)(c2cccc(Sc3ccc(-c4ccnn4C)cc3)c2)CCO1 [Example 82, (2R,4S)-2-methyl-4-(3-{[4-(1-methyl-1H-pyrazol-5-yl)phenyl]thio}phenyl)tetrahydro-2H-pyran-4-carbonitrile]"
12.5 nM,260 nM,"NC(=O)C1(c2cccc(Sc3ccc(-c4ccnn4C4CCCCCC4)cc3)c2)CCOCC1 [Example 4, 4-(3-{[4-(1-cycloheptyl-1H-pyrazol-5-yl)phenyl]thio}phenyl)tetrahydro-2H-pyran-4-carboxamide]"
86.1 nM,225 nM,"NC(=O)C1(c2cccc(Sc3ccc(-c4ccnn4CC4CC4)cc3)c2)CCOCC1 [Example 6, 4-[3-({4-[1-(cyclopropylmethyl)-1H-pyrazol-5-yl]phenyl}thio)phenyl]tetrahydro-2H-pyran-4-carboxamide]"
454 nM,267 nM,"Cn1nccc1-c1ccc(Sc2cccc(C3(C(N)=O)CCOCC3)c2)c(F)c1 [Example 12, 4-(3-{[2-Fluoro-4-(1-methyl-1H-pyrazol-5-yl)phenyl]thio}phenyl)tetrahydro-2H-pyran-4-carboxamide]"
740 nM,3130 nM,"COc1cc(C(=O)c2ccnn2C)ccc1Sc1cccc(C2(C(N)=O)CCOCC2)c1 [Example 70, 4-[3-({2-methoxy-4-[(1-methyl-1H-pyrazol-5-yl)carbonyl]phenyl}thio)phenyl]tetrahydro-2H-pyran-4-carboxamide]"
14 nM,200 nM,"C[C@H]1C[C@@](C(N)=O)(c2cccc(Sc3ccc(-c4ccnn4C)c(F)c3)c2)CCO1 [Example 30, (2S,4R)-4-(3-(3-fluoro-4-(1-methyl-1H-pyrazol-5-yl)phenylthio)phenyl)-2-methyl-tetrahydro-2H-pyran-4-carboxamide]"
13.4 nM,672 nM,"C[C@H]1C[C@@](C(N)=O)(c2cccc(Sc3ccc(-c4c(Br)cnn4C)cc3)c2F)CCO1 [Example 73, (2S,4R)-4-(3-{[4-(4-bromo-1-methyl-1H-pyrazol-5-yl)phenyl]thio}-2-fluorophenyl)-2-methyltetrahydro-2H-pyran-4-carboxamide]"
2710 nM,999 nM,"Cn1nccc1-c1ccc(Sc2cccc(C3(C#N)CCOCC3)c2)cc1 [Example 49, 4-(3-{[4-(1-methyl-1H-pyrazol-5-yl)phenyl]thio}phenyl)tetrahydro-2H-pyran-4-carbonitrile]"

# The next lines start with the molecule.
SMILES,IC50 (recombinant human 5-LOX),IC50 [1]
"Cn1nccc1C(=O)c1ncc(Sc2cccc(C3(C(N)=O)CCOCC3)c2)cc1Cl [Example 42, 4-(3-(5-chloro-6-(1-methyl-1H-pyrazole-5-carbonyl)pyridin-3-ylthio)phenyl)-tetrahydro-2H-pyran-4-carboxamide]",737 nM,851 nM
"NC(=O)C1(c2cccc(Sc3ccc(-c4ccnn4CC4CCCC4)cc3)c2)CCOCC1 [Example 7, 4-[3-({4-[1-(cyclopentylmethyl)-1H-pyrazol-5-yl]phenyl}thio)phenyl]tetrahydro-2H-pyran-4-carboxamide]",38.6 nM,78.5 nM
"NC(=O)C1(c2cccc(Sc3ccc(-c4ccnn4C4CCCCC4)cc3)c2)CCOCC1 [Example 5, 4-(3-{[4-(1-cyclohexyl-1H-pyrazol-5-yl)phenyl]thio}phenyl)tetrahydro-2H-pyran-4-carboxamide]",15.9 nM,410 nM
"Cn1nccc1C(=O)c1ccc(Sc2cccc(C3(C(N)=O)CCOCC3)c2)c(Cl)c1 [Example 68, 4-[3-({2-chloro-4-[(1-methyl-1H-pyrazol-5-yl)carbonyl]phenyl}thio)phenyl]tetrahydro-2H-pyran-4-carboxamide]",803 nM,2480 nM
"Cn1nccc1Oc1ncc(Sc2cccc(C3(C(N)=O)CCOCC3)c2F)cc1Cl [Example 61, 4-[3-({5-chloro-6-[(1-methyl-1H-pyrazol-5-yl)oxy]pyridin-3-yl}thio)-2-fluorophenyl]tetrahydro-2H-pyran-4-carboxamide]",327 nM,2160 nM
"C[C@H]1C[C@@](C#N)(c2ccc(F)c(Sc3ccc(-c4ccnn4C)cc3)c2F)CCO1 [28(2), (2S,4R)-4-(2,4-difluoro-3-(4-(1-methyl-1H-pyrazol-5-yl)phenylthio)phenyl)-2-methyl-tetrahydro-2H-pyran-4-carbonitrile]",38.9 nM,42.2 nM
"Cn1ncc(Br)c1-c1ccc(Sc2cccc(C3(C(N)=O)CCOCC3)c2)cc1 [Example 76, 4-(3-{[4-(4-bromo-1-methyl-1H-pyrazol-5-yl)phenyl]thio}phenyl)tetrahydro-2H-pyran-4-carboxamide]",108 nM,727 nM
"Cn1nccc1C(=O)c1ccc(Sc2cccc(C3(C(N)=O)CCOCC3)c2)cc1C#N [Example 38, 4-[3-({3-cyano-4-[(1-methyl-1H-pyrazol-5-yl)carbonyl]phenyl}thio)phenyl]tetrahydro-2H-pyran-4-carboxamide]",469 nM,640 nM
"COc1cc(Sc2cccc(C3(C(N)=O)CCOCC3)c2)ccc1C(=O)c1ccnn1C [Example 71, 4-[3-({3-methoxy-4-[(1-methyl-1H-pyrazol-5-yl)carbonyl]phenyl}thio)phenyl]tetrahydro-2H-pyran-4-carboxamide]",430 nM,1980 nM
